Results as given in patent US20260285850A1, “SUBSTITUTED OXAZOLIDINONES AND IMIDAZOLINONES AS HERBICIDES” (FMC CORPORATION, priority 2023, published 2026).

Columns and labels:
Type in all cases: in vivo
[1] = tested on: barnyardgrass (Echinochloa crus-galli); test: Test A postemergence application, visual injury rating 0-100; details: for Barnyardgrass plant response rating (0 to 100 scale): Postemergence
Procedure, shortened: (§1)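 Compound in a non-phytotoxic, surfactant-containing solvent is applied either as a directed soil spray before seedlings emerge or onto emerged plants 2-10 cm tall; pots hold a loam-sand blend. Plants grow 10 days under greenhouse conditions and are rated by eye against untreated controls (0 no effect, 100 complete control).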

[2] = tested on: oat, wild (wild oat, Avena fatua); test: as above; details: for Oat, Wild plant response rating (0 to 100 scale): Postemergence
Procedure, shortened: as §1

[3] = tested on: galium (catchweed bedstraw, Galium aparine); test: as above; details: Postemergence
Procedure, shortened: as §1

kochia (Bassia scoparia) [4] = test: as above; details: for Kochia plant response rating (0 to 100 scale): Postemergence
Procedure, shortened: as §1

[5] = tested on: green foxtail (Setaria viridis); test: as above; details: for Foxtail, Green plant response rating (0 to 100 scale): Postemergence
Procedure, shortened: as §1

corn (Zea mays) [6] = test: as above; details: for Corn plant response rating (0 to 100 scale): Postemergence
Procedure, shortened: as §1

[7] = tested on: wheat (Triticum aestivum); test: as above; details: for Wheat plant response rating (0 to 100 scale): Postemergence
Procedure, shortened: as §1

soybean (Glycine max) [8] = test: as above; details: for Soybean plant response rating (0 to 100 scale): Postemergence
Procedure, shortened: as §1

[9] = tested on: ragweed (common ragweed, Ambrosia artemisiifolia); test: as above; details: for Ragweed plant response rating (0 to 100 scale): Postemergence
Procedure, shortened: as §1

[10] = tested on: ryegrass, Italian (italian ryegrass, Lolium multiflorum); test: as above; details: for Ryegrass, Italian plant response rating (0 to 100 scale): Postemergence
Procedure, shortened: as §1

[11] = tested on: blackgrass (Alopecurus myosuroides); test: as above; details: for Blackgrass plant response rating (0 to 100 scale): Postemergence
Procedure, shortened: as §1

[12] = tested on: palmer (palmer amaranth, palmer pigweed, Amaranthus palmeri); test: as above; details: for Amaranth, Palmer / Pigweed, Palmer plant response rating (0 to 100 scale): 0 is no effect, 100 is complete control
Procedure, shortened: as §1

[13] = tested on: horseweed (Erigeron canadensis); test: as above; details: for Horseweed plant response rating (0 to 100 scale): Postemergence
Procedure, shortened: as §1

[14] = tested on: barnyardgrass (Echinochloa crus-galli); test: Test A preemergence soil spray, visual injury rating 0-100; details: 10 days
Procedure, shortened: as §1

[15] = tested on: oat, wild (wild oat, Avena fatua); test: as above; details: 10 days
Procedure, shortened: as §1

kochia (Bassia scoparia) [16] = test: as above; details: 10 days, 0 = no effect, 100 = complete control
Procedure, shortened: as §1

[17] = tested on: green foxtail (Setaria viridis); test: as above; details: 10 days
Procedure, shortened: as §1

corn (Zea mays) [18] = test: as above; details: 10 days
Procedure, shortened: as §1

[19] = tested on: wheat (Triticum aestivum); test: as above; details: 10 days
Procedure, shortened: as §1

soybean (Glycine max) [20] = test: as above; details: 10 days
Procedure, shortened: as §1

[21] = tested on: ryegrass, Italian (italian ryegrass, Lolium multiflorum); test: as above; details: 10 days
Procedure, shortened: as §1

[22] = tested on: blackgrass (Alopecurus myosuroides); test: as above; details: 10 days
Procedure, shortened: as §1

[23] = tested on: palmer (palmer amaranth, palmer pigweed, Amaranthus palmeri); test: as above; details: 10 days
Procedure, shortened: as §1

[24] = tested on: barnyardgrass (Echinochloa crusgalli); test: Test B flooded paddy test, visual plant response rating 0-100; details: 250 g ai/ha, Flood, applied to paddy water, evaluated after 13 days
Procedure, shortened: (§2)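 Plants were grown to the 2-leaf stage, then pots were flooded to 3 cm above the soil and compound was applied directly to the paddy water, with that depth kept throughout.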

rice (Oryza sativa) = test: as above; details: 250 g ai/ha, Flood, applied to paddy water, evaluated after 13 days
Procedure, shortened: as §2

[25] = tested on: ducksalad (Heteranthera limosa); test: as above; details: 250 g ai/ha, Flood, applied to paddy water, evaluated after 13 days
Procedure, shortened: as §2

[26] = tested on: sedge, umbrella (small-flower umbrella sedge, Cyperus difformis); test: as above; details: 250 g ai/ha, Flood, applied to paddy water, evaluated after 13 days
Procedure, shortened: as §2

[27] = tested on: ragweed (common ragweed, Ambrosia artemisiifolia); test: Test A preemergence soil spray, visual injury rating 0-100; details: 10 days
Procedure, shortened: as §1

[28] = 125 g ai/ha, 10 days, 0 is no effect, 100 is complete control
[29] = 500 g ai/ha, 10 days, 0 is no effect, 100 is complete control
[30] = 125 g ai/ha, 0 = no effect, 100 = complete control
[31] = 500 g ai/ha, 0 = no effect, 100 = complete control
[32] = 62 g ai/ha, postemergence, 10 days, 0 = no effect, 100 = complete control
[33] = 16 g ai/ha, greenhouse 10 days, 0 no effect, 100 complete control
[34] = 62 g ai/ha, 0 = no effect, 100 = complete control

COCCOC(=O)C1C=CC(NC(=O)C2(C)CN(c3cc(F)cc(F)c3)C(=O)O2)C1 (stereo not drawn) [Compound 36]
90: Oat, Wild plant response rating (0 to 100 scale) [2, 28] | Foxtail, Green plant response rating (0 to 100 scale) [5, 29] | Ryegrass, Italian plant response rating (0 to 100 scale) [10, 28] | Horseweed plant response rating (0 to 100 scale) [13, 29] | Oat, Wild plant response rating (0 to 100 scale) [15, 30] | Oat, Wild plant response rating (0 to 100 scale) [15, 31] | Kochia plant response rating (0 to 100 scale) (kochia (Bassia scoparia) [16]; 125 g ai/ha) | Corn plant response rating (0 to 100 scale) (corn (Zea mays) [18]; [30]) | Corn plant response rating (0 to 100 scale) (corn (Zea mays) [18]; [31]) | Wheat plant response rating (0 to 100 scale) [19, 30] | Plant response rating, Ducksalad (0 to 100 scale, 0 is no effect and 100 is complete control) [25]
80: Galium plant response rating (0 to 100 scale) [3, 29] | Foxtail, Green plant response rating (0 to 100 scale) [5, 28] | Wheat plant response rating (0 to 100 scale) [7, 29] | Soybean plant response rating (0 to 100 scale) (soybean (Glycine max) [8]; [29]) | Ragweed plant response rating (0 to 100 scale) [9, 29] | Ryegrass, Italian plant response rating (0 to 100 scale) [10, 29] | Soybean plant response rating (0 to 100 scale) (soybean (Glycine max) [20]; [31]) | Blackgrass plant response rating (0 to 100 scale) [22, 30] | Amaranth, Palmer plant response rating (0 to 100 scale) [23, 30]
100: Barnyardgrass plant response rating (0 to 100 scale) [1, 28] | Barnyardgrass plant response rating (0 to 100 scale) [1, 29] | Oat, Wild plant response rating (0 to 100 scale) [2, 29] | Corn plant response rating (0 to 100 scale) (corn (Zea mays) [6]; [28]) | Corn plant response rating (0 to 100 scale) (corn (Zea mays) [6]; [29]) | Blackgrass plant response rating (0 to 100 scale) [11, 28] | Blackgrass plant response rating (0 to 100 scale) [11, 29] | Amaranth, Palmer / Pigweed, Palmer plant response rating (0 to 100 scale) ([12]; Postemergence, 500 g ai/ha, 10 days) | Barnyardgrass plant response rating (0 to 100 scale) [14, 30] | Barnyardgrass plant response rating (0 to 100 scale) [14, 31] | Kochia plant response rating (0 to 100 scale) (kochia (Bassia scoparia) [16]; 500 g ai/ha) | Foxtail, Green plant response rating (0 to 100 scale) [17, 30] | Foxtail, Green plant response rating (0 to 100 scale) [17, 31] | Wheat plant response rating (0 to 100 scale) [19, 31] | Ryegrass, Italian plant response rating (0 to 100 scale) [21, 30] | Ryegrass, Italian plant response rating (0 to 100 scale) [21, 31] | Blackgrass plant response rating (0 to 100 scale) [22, 31] | Amaranth, Palmer plant response rating (0 to 100 scale) [23, 31]
55: Plant response rating, Rice (0 to 100 scale, 0 is no effect and 100 is complete control) (rice (Oryza sativa))
60: Kochia plant response rating (0 to 100 scale) (kochia (Bassia scoparia) [4]; [28]) | Ragweed plant response rating (0 to 100 scale) [9, 28] | Amaranth, Palmer / Pigweed, Palmer plant response rating (0 to 100 scale) ([12]; Postemergence, 125 g ai/ha, 10 days) | Soybean plant response rating (0 to 100 scale) (soybean (Glycine max) [20]; [30]) | Plant response rating, Barnyardgrass (0 to 100 scale, 0 is no effect and 100 is complete control) [24]
70: Galium plant response rating (0 to 100 scale) [3, 28] | Kochia plant response rating (0 to 100 scale) (kochia (Bassia scoparia) [4]; [29]) | Wheat plant response rating (0 to 100 scale) [7, 28] | Soybean plant response rating (0 to 100 scale) (soybean (Glycine max) [8]; [28]) | Horseweed plant response rating (0 to 100 scale) [13, 28]
95: Plant response rating, Sedge, Umbrella (0 to 100 scale, 0 is no effect and 100 is complete control) [26]

COC(=O)C1=CCC(NC(=O)C2(C)CN(c3cc(Cl)cc(Cl)c3)C(=O)O2)C1 (stereo not drawn) [Compound 148]
30: Foxtail, Green plant response rating (0-100) [5, 32] | Wheat plant response rating (0-100) [7, 32]
80: Kochia plant response rating (0-100) (kochia (Bassia scoparia) [4]; [32]) | Pigweed, Palmer plant response rating (0-100) [12, 32]
40: Galium plant response rating (0 to 100 scale) [3, 33]
70: Corn plant response rating (0-100) (corn (Zea mays) [6]; [32]) | Blackgrass plant response rating (0-100) [11, 32]
0: Barnyardgrass plant response rating (0 to 100 scale) [1, 33] | Oat, Wild plant response rating (0 to 100 scale) [2, 33] | Kochia plant response rating (0 to 100 scale) (kochia (Bassia scoparia) [4]; [33]) | Foxtail, Green plant response rating (0 to 100 scale) [5, 33] | Corn plant response rating (0 to 100 scale) (corn (Zea mays) [6]; [33]) | Soybean plant response rating (0 to 100 scale) (soybean (Glycine max) [8]; [33]) | Ragweed plant response rating (0-100) [9, 32] | Ragweed plant response rating (0 to 100 scale) [9, 33] | Ryegrass, Italian plant response rating (0 to 100 scale) [10, 33] | Blackgrass plant response rating (0 to 100 scale) [11, 33] | Horseweed plant response rating (0-100) [13, 32] | Horseweed plant response rating (0 to 100 scale) [13, 33] | Barnyardgrass plant response rating ([14]; 16 g ai/ha, 0 to 100 scale) | Barnyardgrass plant response rating (0-100) [14, 34] | Oat, Wild plant response rating ([15]; 16 g ai/ha, 0 to 100 scale) | Oat, Wild plant response rating (0-100) [15, 34] | Foxtail, Green plant response rating ([17]; 16 g ai/ha, 0 to 100 scale) | Foxtail, Green plant response rating (0-100) [17, 34] | Corn plant response rating (corn (Zea mays) [18]; 16 g ai/ha, 0 to 100 scale) | Corn plant response rating (0-100) (corn (Zea mays) [18]; [34]) | Wheat plant response rating ([19]; 16 g ai/ha, 0 to 100 scale) | Wheat plant response rating (0-100) [19, 34] | Soybean plant response rating (soybean (Glycine max) [20]; 16 g ai/ha, 0 to 100 scale) | Ragweed plant response rating ([27]; 16 g ai/ha, 0 to 100 scale) | Ragweed plant response rating (0-100) [27, 34] | Ryegrass, Italian plant response rating ([21]; 16 g ai/ha, 0 to 100 scale) | Ryegrass, Italian plant response rating (0-100) [21, 34] | Blackgrass plant response rating ([22]; 16 g ai/ha, 0 to 100 scale) | Blackgrass plant response rating (0-100) [22, 34] | Pigweed, Palmer plant response rating ([23]; 16 g ai/ha, 0 to 100 scale) | Pigweed, Palmer plant response rating (0-100) [23, 34] | Plant response rating, Barnyardgrass (0 to 100 scale, 0 is no effect and 100 is complete control) [24] | Plant response rating, Rice (0 to 100 scale, 0 is no effect and 100 is complete control) (rice (Oryza sativa)) | Plant response rating, Ducksalad (0 to 100 scale, 0 is no effect and 100 is complete control) [25] | Plant response rating, Sedge, Umbrella (0 to 100 scale, 0 is no effect and 100 is complete control) [26]
20: Soybean plant response rating (0-100) (soybean (Glycine max) [20]; [34])
50: Soybean plant response rating (0-100) (soybean (Glycine max) [8]; [32]) | Ryegrass, Italian plant response rating (0-100) [10, 32]
90: Barnyardgrass plant response rating (0-100) [1, 32]
10: Oat, Wild plant response rating (0-100) [2, 32] | Wheat plant response rating (0 to 100 scale) [7, 33] | Pigweed, Palmer plant response rating (0 to 100 scale) ([12]; Postemergence, 16 g ai/ha, greenhouse 10 days, 0 no effect, 100 complete control)
